According to ChEMBL document CHEMBL2424531, “Molecular docking- and genetic algorithm-based approaches to produce robust 3D-QSAR models” (Med Chem Res, 2013):
pKi: −log10 of the molar value.

Assay: Inhibition of glycogen phosphorylase b (unknown origin)
Set-up: species or system Homo sapiens

| Structure (SMILES) | pKi |
| --- | --- |
| O=C(CSC1O[C@H](CO)[C@@H](O)[C@H](O)[C@H]1O)Nc1ccc(F)cc1F (single isomer, unassigned) | 1.72 |
| [N-]=[N+]=NC[C@]1(O)O[C@H](CO)[C@@H](O)[C@H](O)[C@H]1O | 2.13 |
| NNC(=O)[C@H]1O[C@H](CO)[C@@H](O)[C@H](O)[C@H]1O | 2.52 |
| OC[C@H]1O[C@@H](Oc2cc3ccccc3[nH]2)[C@H](O)[C@@H](O)[C@@H]1O | 2.59 |
| O=C(Nc1ccc(O)cc1)[C@H]1O[C@H](CO)[C@@H](O)[C@H](O)[C@H]1O | 2.25 |
| [N-]=[N+]=NC[C@H]1O[C@H](CO)[C@@H](O)[C@H](O)[C@H]1O | 1.65 |
| O=C(CSC1O[C@H](CO)[C@@H](O)[C@H](O)[C@H]1O)Nc1ccccc1 (single isomer, unassigned) | 2.44 |
| OC[C@H]1O[C@H](CO)[C@@H](O)[C@H](O)[C@H]1O | 2.82 |
| NC[C@@H]1O[C@H](CO)[C@@H](O)[C@H](O)[C@H]1O | 1.77 |
| CO[C@@H]1O[C@H](CO)[C@@H](O)[C@H](O)[C@H]1O | 1.61 |
| COC(=O)[C@@H]1O[C@H](CO)[C@@H](O)[C@H](O)[C@H]1O | 2.55 |
| O=C(Nc1ccccc1)[C@@H]1O[C@H](CO)[C@@H](O)[C@H](O)[C@H]1O | 2.27 |
| CNNC(=O)C1O[C@H](CO)[C@@H](O)[C@H](O)[C@H]1O (single isomer, unassigned) | 2.74 |
| O=C(NCc1ccc(F)cc1F)[C@H]1O[C@H](CO)[C@@H](O)[C@H](O)[C@H]1O | 1.57 |
| NC(=O)CSC1O[C@H](CO)[C@@H](O)[C@H](O)[C@H]1O (single isomer, unassigned) | 1.68 |
| O=C(Nc1ccc(O)cc1)[C@@H]1O[C@H](CO)[C@@H](O)[C@H](O)[C@H]1O | 2.36 |
| NCC[C@@H]1O[C@H](CO)[C@@H](O)[C@H](O)[C@H]1O | 2.35 |

| Structure (SMILES) | pKi |
| --- | --- |
| COC(=O)[C@H]1O[C@H](CO)[C@@H](O)[C@H](O)[C@H]1O | 1.62 |
| CS(=O)(=O)OC[C@@H]1O[C@H](CO)[C@@H](O)[C@H](O)[C@H]1O | 2.32 |
| N#CC[C@]1(O)O[C@H](CO)[C@@H](O)[C@H](O)[C@H]1O | 2.12 |
| O=C(NCCO)[C@@H]1O[C@H](CO)[C@@H](O)[C@H](O)[C@H]1O | 2.59 |
| C[C@H]1O[C@H](CO)[C@@H](O)[C@H](O)[C@H]1O | 1.27 |
| CS(=O)(=O)OC[C@]1(O)O[C@H](CO)[C@@H](O)[C@H](O)[C@H]1O | 2.43 |
| O=C(NCC(F)(F)F)[C@@H]1O[C@H](CO)[C@@H](O)[C@H](O)[C@H]1O | 2.09 |
| O=C(NC1CC1)[C@@H]1O[C@H](CO)[C@@H](O)[C@H](O)[C@H]1O | 2.89 |
| CNC(=O)[C@H]1O[C@H](CO)[C@@H](O)[C@H](O)[C@H]1O | 1.44 |
| OC[C@H]1S[C@H](O)[C@H](O)[C@@H](O)[C@@H]1O | 2.70 |
| OC[C@H]1O[C@@](O)(CO)[C@H](O)[C@@H](O)[C@@H]1O | 1.80 |
| O=C(NCCO)[C@H]1O[C@H](CO)[C@@H](O)[C@H](O)[C@H]1O | 1.77 |
| O=C(O)[C@H]1O[C@H](CO)[C@@H](O)[C@H](O)[C@H]1O | 1.82 |
| O=C(Nc1ccccc1)[C@H]1O[C@H](CO)[C@@H](O)[C@H](O)[C@H]1O | 1.90 |
| NC[C@H]1O[C@H](CO)[C@@H](O)[C@H](O)[C@H]1O | 1.46 |
| N#CC[C@@H]1O[C@H](CO)[C@@H](O)[C@H](O)[C@H]1O | 2.05 |

These reach a higher pKi. Values come first.

| pKi | Structure (SMILES) |
| --- | --- |
| 4.22 | O=C1CNC(=O)C2(N1)O[C@H](CO)[C@@H](O)[C@H](O)[C@H]2O (stereo partly specified) |
| 3.36 | NC(=O)[C@@H]1O[C@H](CO)[C@@H](O)[C@H](O)[C@H]1O |
| 3.85 | NC(=O)NC1O[C@H](CO)[C@@H](O)[C@H](O)[C@H]1O (single isomer, unassigned) |
| 4.36 | O=C(CBr)N[C@@H]1O[C@H](CO)[C@@H](O)[C@H](O)[C@H]1O |
| 4.41 | CCC(=O)NC1O[C@H](CO)[C@@H](O)[C@H](O)[C@H]1O (single isomer, unassigned) |
| 4.09 | O=C(NC1O[C@H](CO)[C@@H](O)[C@H](O)[C@H]1O)c1ccccc1 (single isomer, unassigned) |
| 3.43 | NC(=O)[C@H]1O[C@H](CO)[C@@H](O)[C@H](O)[C@H]1O |
| 3.80 | CNC(=O)[C@@H]1O[C@H](CO)[C@@H](O)[C@H](O)[C@H]1O |
| 3.84 | NN1C(=O)NC2(O[C@H](CO)[C@@H](O)[C@H](O)[C@H]2O)C1=O (stereo partly specified) |
| 3.40 | NNC(=O)[C@@H]1O[C@H](CO)[C@@H](O)[C@H](O)[C@H]1O |
| 3.43 | NCC(=O)N[C@@H]1O[C@H](CO)[C@@H](O)[C@H](O)[C@H]1O |
| 3.00 | OC[C@H]1O[C@@H](S)[C@H](O)[C@@H](O)[C@@H]1O |
| 4.03 | CCCC(=O)NC1O[C@H](CO)[C@@H](O)[C@H](O)[C@H]1O (single isomer, unassigned) |
| 3.00 | CC(=O)NCC(=O)NC1O[C@H](CO)[C@@H](O)[C@H](O)[C@H]1O (single isomer, unassigned) |
| 4.49 | CC(=O)NC1O[C@H](CO)[C@@H](O)[C@H](O)[C@H]1O (single isomer, unassigned) |
| 4.80 | COC(=O)N[C@]1(C(N)=O)O[C@H](CO)[C@@H](O)[C@H](O)[C@H]1O |
| 4.07 | COC(=O)N[C@@H]1O[C@H](CO)[C@@H](O)[C@H](O)[C@H]1O |
| 4.35 | O=C(CCl)NC1O[C@H](CO)[C@@H](O)[C@H](O)[C@H]1O (single isomer, unassigned) |
